pIC50: −log10 of the molar value.
How the values were obtained:
AgrA = target: T1, AgrA (Staphylococcus aureus, UniProt P0A0I7); assay: AgrA-dependent agr::P3 lux reporter in agr-null S. aureus ([…]), positive control; format: cell-based
T1 construct: plasmid-encoded AgrA (pCM63) in S. aureus Δagr reporter strain AH3048

[1] = target: AgrA (AgrAC, C-terminal DNA binding domain) (Staphylococcus aureus, UniProt P0A0I7); assay: EMSA with purified AgrAC and FAM-labeled […] bp DNA duplex; supported by AgrA-driven agr::P3 lux reporter in agr-null S. aureus
Chain of AgrA (AgrAC, C-terminal DNA binding domain) (P0A0I7 137-238): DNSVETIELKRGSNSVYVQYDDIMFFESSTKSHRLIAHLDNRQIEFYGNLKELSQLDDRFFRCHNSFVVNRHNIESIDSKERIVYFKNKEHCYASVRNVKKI

T1 sequence (P0A0I7 whole entry): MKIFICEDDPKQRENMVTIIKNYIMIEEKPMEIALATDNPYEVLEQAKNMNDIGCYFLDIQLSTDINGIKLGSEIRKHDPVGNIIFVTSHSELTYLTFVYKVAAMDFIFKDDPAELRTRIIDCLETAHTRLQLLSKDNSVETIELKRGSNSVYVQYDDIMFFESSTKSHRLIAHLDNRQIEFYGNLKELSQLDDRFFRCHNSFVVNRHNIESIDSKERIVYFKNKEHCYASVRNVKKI

Row | Compound | AgrA-dependent agr::P3 lux reporter in agr-null S. aureus (1.56-100 μM), positiv (AgrA) | pIC50 [1]
1 | O=C(O)c1cc(-c2ccc(F)cc2F)ccc1O [diflunisal] | diflunisal and 4-phenoxyphenol, compounds published by others as inhibitors of AgrAc DNA binding ability | –
2 | CC(C)c1ccc(S(=O)(=O)c2n[nH]n3c2nc(=O)c2ccccc23)cc1 [savirin, 3-(4-propan-2-ylphenyl) sulfonyl-1H-triazolo [1,5-a] quinazolin-5-one] | – | 4.08

Source: article PMC4055767, “Selective Chemical Inhibition of agr Quorum Sensing in Staphylococcus aureus Promotes Host Defense with Minimal Impact on Resistance” (PLoS Pathogens, 2014)
